Activity calls are given as the source filed them. The calls are words filed in the database; no cut-off is given here.
What was measured:
[1] = tested on: Protein cereblon/Epidermal growth factor receptor (Homo sapiens), P00533+Q96SW2 [UNDEFINED MUTATION]; assay: Protac activity at CRBN/EGFR deletion19 mutant in human PC-9 cells assessed as induction of EGFR degradation at 100 nM and measured after 24 hrs under normoxia condition by Western blot analysis; format: cell-based
PC-9 [2] = assay: Antitumor activity against human PC-9 cells assessed as inhibition of cell viability incubated for 72 hrs under normoxia condition by CCK8 assay; format: functional, cell-based; conditions: PC-9, 72 h
PC-9 [3] = assay: Antitumor activity against human PC-9 cells assessed as inhibition of cell viability incubated for 72 hrs under hypoxia condition by CCK8 assay; format: functional, cell-based; conditions: PC-9, 72 h
[4] = tested on: Protein cereblon/Epidermal growth factor receptor (Homo sapiens), P00533+Q96SW2 [UNDEFINED MUTATION]; assay: Protac activity at CRBN/EGFR deletion19 mutant in human PC-9 cells assessed as induction of EGFR degradation at 0.001 to 1 uM and measured after 24 hrs under normoxia condition by Western blot analysis; format: cell-based; conditions: dose 0.001-1 µM
[5] = tested on: Protein cereblon/Epidermal growth factor receptor (Homo sapiens), P00533+Q96SW2 [UNDEFINED MUTATION]; assay: Protac activity at CRBN/EGFR deletion19 mutant in human PC-9 cells assessed as induction of EGFR degradation at 0.001 to 1 uM and measured after 24 hrs under hypoxia condition by Western blot analysis; format: cell-based; conditions: dose 0.001-1 µM
PC-9 [6] = assay: Inhibition of cell migration in human PC-9 cells at 100 nM incubated for 24 hrs under normoxia condition by imaging analysis; format: functional, cell-based
PC-9 [7] = assay: Inhibition of cell migration in human PC-9 cells at 100 nM incubated for 24 hrs under hypoxia condition by imaging analysis; format: functional, cell-based
PC-9 [8] = assay: Induction of apoptosis in human PC-9 cells assessed as necrotic cells at 0.1 uM incubated for 72 hrs under normoxia condition by Annexin V-FITC/ PI staining based flow cytometry (Rvb= 0.93%); format: functional
PC-9 [9] = assay: Induction of apoptosis in human PC-9 cells assessed as late apoptotic cells at 0.1 uM incubated for 72 hrs under normoxia condition by Annexin V-FITC/ PI staining based flow cytometry (Rvb= 3.72%); format: functional
PC-9 [10] = assay: Induction of apoptosis in human PC-9 cells assessed as early apoptotic cells at 0.1 uM incubated for 72 hrs under normoxia condition by Annexin V-FITC/ PI staining based flow cytometry (Rvb= 0.82%); format: functional
PC-9 [11] = assay: Induction of apoptosis in human PC-9 cells assessed as live cells at 0.1 uM incubated for 72 hrs under normoxia condition by Annexin V-FITC/ PI staining based flow cytometry (Rvb= 94.53%); format: functional
PC-9 [12] = assay: Induction of apoptosis in human PC-9 cells assessed as necrotic cells at 0.1 uM incubated for 72 hrs under hypoxia condition by Annexin V-FITC/ PI staining based flow cytometry (Rvb= 2.81%); format: functional
PC-9 [13] = assay: Induction of apoptosis in human PC-9 cells assessed as late apoptotic cells at 0.1 uM incubated for 72 hrs under hypoxia condition by Annexin V-FITC/ PI staining based flow cytometry (Rvb= 4.73%); format: functional
PC-9 [14] = assay: Induction of apoptosis in human PC-9 cells assessed as early apoptotic cells at 0.1 uM incubated for 72 hrs under hypoxia condition by Annexin V-FITC/ PI staining based flow cytometry (Rvb= 4.27%); format: functional
PC-9 [15] = assay: Induction of apoptosis in human PC-9 cells assessed as live cells at 0.1 uM incubated for 72 hrs under hypoxia condition by Annexin V-FITC/ PI staining based flow cytometry (Rvb= 88.19%); format: functional
PC-9 [16] = assay: Induction of apoptosis in human PC-9 cells assessed as apoptotic cells at 0.1 uM incubated for 72 hrs under normoxia condition by Annexin V-FITC/ PI staining based flow cytometry (Rvb= 4.54%); format: functional
PC-9 [17] = assay: Induction of apoptosis in human PC-9 cells assessed as apoptotic cells at 0.1 uM incubated for 72 hrs under hypoxia condition by Annexin V-FITC/ PI staining based flow cytometry (Rvb= 9%); format: functional
[18] = Prodrug conversion in hypoxia condition assessed as nitroreductase mediated drug degradation by measuring parent compound remaining in presence of NADPH as cofactor at 1 uM and measured after 60 mins by UPLC-MS/MS analysis; format: ADME; conditions: isolated protein, 1 h
[19] = Prodrug conversion in hypoxia condition assessed as nitroreductase mediated active drug N-(4-((3-chloro-4-fluorophenyl)amino)-7-(((S)-tetrahydrofuran-3-yl)oxy)quinazolin-6-yl)-3-(2-(2-(2-((2-(2,6-dioxopiperidin-3-yl)-1,3-dioxoisoindolin-4-yl)oxy)ethoxy)ethoxy)ethoxy)propanamide formation in presence of NADPH as cofactor at 1 uM and measured after 60 mins by UPLC-MS/MS analysis; format: ADME; conditions: isolated protein, 1 h
[20] = tested on: Protein cereblon/Epidermal growth factor receptor (Homo sapiens), P00533+Q96SW2 [UNDEFINED MUTATION]; assay: Protac activity at CRBN/EGFR deletion19 mutant in human PC-9 cells assessed as induction of EGFR degradation at 0.001 to 0.1 uM and measured after 24 hrs under normoxia condition by Western blot analysis; format: cell-based; conditions: dose 0.001-0.1 µM
[21] = tested on: Protein cereblon/Epidermal growth factor receptor (Homo sapiens), P00533+Q96SW2 [UNDEFINED MUTATION]; assay: Protac activity at CRBN/EGFR deletion19 mutant in human PC-9 cells assessed as induction of EGFR degradation at 0.001 to 0.1 uM and measured after 24 hrs under hypoxia condition by Western blot analysis; format: cell-based; conditions: dose 0.001-0.1 µM
[22] = tested on: Protein cereblon/Epidermal growth factor receptor (Homo sapiens), P00533+Q96SW2 [UNDEFINED MUTATION]; assay: Protac activity at CRBN/EGFR deletion19 mutant in human PC-9 cells assessed as induction of EGFR degradation at 0.5 to 1 uM and measured after 24 hrs under normoxia condition by Western blot analysis; format: cell-based; conditions: dose 0.5-1 µM
[23] = tested on: Protein cereblon/Epidermal growth factor receptor (Homo sapiens), P00533+Q96SW2 [UNDEFINED MUTATION]; assay: Protac activity at CRBN/EGFR deletion19 mutant in human PC-9 cells assessed as induction of EGFR degradation at 0.5 to 1 uM and measured after 24 hrs under hypoxia condition by Western blot analysis; format: cell-based; conditions: dose 0.5-1 µM

Sequence of Protein cereblon/Epidermal growth factor receptor (Homo sapiens), P00533+Q96SW2 [UNDEFINED MUTATION] (P00533 whole entry, looked up, stated change not applied): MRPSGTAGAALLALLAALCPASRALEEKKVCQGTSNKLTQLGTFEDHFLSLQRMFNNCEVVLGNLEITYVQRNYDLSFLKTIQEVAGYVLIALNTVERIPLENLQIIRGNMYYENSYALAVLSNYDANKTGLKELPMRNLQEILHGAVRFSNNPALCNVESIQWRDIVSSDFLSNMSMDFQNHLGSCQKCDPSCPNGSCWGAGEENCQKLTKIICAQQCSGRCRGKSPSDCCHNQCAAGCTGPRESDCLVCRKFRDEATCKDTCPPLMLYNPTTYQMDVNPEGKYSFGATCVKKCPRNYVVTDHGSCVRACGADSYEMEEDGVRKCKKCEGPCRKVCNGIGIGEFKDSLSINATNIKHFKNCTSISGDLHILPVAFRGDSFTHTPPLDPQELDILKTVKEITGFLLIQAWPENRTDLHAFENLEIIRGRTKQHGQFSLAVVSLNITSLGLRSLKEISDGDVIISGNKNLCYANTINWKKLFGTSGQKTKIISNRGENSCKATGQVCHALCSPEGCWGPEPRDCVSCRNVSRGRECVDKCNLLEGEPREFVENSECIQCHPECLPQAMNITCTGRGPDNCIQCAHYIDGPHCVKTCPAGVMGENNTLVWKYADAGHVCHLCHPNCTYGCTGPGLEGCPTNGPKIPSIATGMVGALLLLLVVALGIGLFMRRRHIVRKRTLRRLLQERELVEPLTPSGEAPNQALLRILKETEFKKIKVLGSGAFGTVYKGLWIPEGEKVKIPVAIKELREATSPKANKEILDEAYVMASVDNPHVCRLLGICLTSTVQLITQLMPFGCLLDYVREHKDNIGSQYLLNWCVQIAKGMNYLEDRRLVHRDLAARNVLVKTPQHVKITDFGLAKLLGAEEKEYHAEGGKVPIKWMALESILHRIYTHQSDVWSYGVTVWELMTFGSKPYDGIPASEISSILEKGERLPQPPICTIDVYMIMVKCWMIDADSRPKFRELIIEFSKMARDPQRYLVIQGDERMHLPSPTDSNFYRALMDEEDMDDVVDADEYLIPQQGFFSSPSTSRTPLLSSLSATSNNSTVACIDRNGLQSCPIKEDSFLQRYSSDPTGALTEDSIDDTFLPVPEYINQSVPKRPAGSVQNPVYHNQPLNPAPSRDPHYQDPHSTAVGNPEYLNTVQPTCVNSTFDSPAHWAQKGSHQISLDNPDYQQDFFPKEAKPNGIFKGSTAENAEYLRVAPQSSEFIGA
Sequence of Protein cereblon/Epidermal growth factor receptor (Homo sapiens), P00533+Q96SW2 [UNDEFINED MUTATION] (Q96SW2 whole entry, looked up, stated change not applied): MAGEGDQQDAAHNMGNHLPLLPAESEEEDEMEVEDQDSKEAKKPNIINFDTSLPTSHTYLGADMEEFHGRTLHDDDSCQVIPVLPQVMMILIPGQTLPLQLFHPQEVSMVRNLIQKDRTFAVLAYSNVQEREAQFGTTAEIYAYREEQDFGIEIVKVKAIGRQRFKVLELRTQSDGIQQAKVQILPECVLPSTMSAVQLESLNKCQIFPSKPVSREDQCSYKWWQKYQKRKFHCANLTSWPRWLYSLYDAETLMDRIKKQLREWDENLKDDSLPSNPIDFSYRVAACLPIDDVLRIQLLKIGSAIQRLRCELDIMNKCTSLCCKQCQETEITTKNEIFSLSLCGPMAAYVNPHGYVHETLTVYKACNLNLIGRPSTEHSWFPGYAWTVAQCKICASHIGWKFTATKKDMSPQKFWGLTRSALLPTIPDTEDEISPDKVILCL

Row | SMILES | IC50 (PC-9 [2]) [nM] | IC50 (PC-9 [3]) [nM] | inhibition (PC-9 [6]) | inhibition (PC-9 [7]) | Activity (PC-9 [8]) [%] | Activity (PC-9 [9]) [%] | Activity (PC-9 [10]) [%] | Activity (PC-9 [11]) [%] | Activity (PC-9 [12]) [%] | Activity (PC-9 [13]) [%] | Activity (PC-9 [14]) [%] | Activity (PC-9 [15]) [%] | Activity (PC-9 [16]) [%] | Activity (PC-9 [17]) [%] | Stability [18] | Drug metabolism [19] | further results
1 | O=C1CCC(N2C(=O)c3cccc(OCCOCCOCCOCCC(=O)Nc4cc5c(Nc6ccc(F)c(Cl)c6)ncnc5cc4O[C@H]4CCOC4)c3C2=O)C(=O)N1 (stereo partly specified) | 1300 | 1300 | – | – | – | – | – | – | – | – | – | – | – | – | – | – | Activity [1]: Active
2 | Cn1c(CN2C(=O)CCC(N3C(=O)c4cccc(OCCOCCOCCOCCC(=O)Nc5cc6c(Nc7ccc(F)c(Cl)c7)ncnc6cc5O[C@H]5CCOC5)c4C3=O)C2=O)cnc1[N+](=O)[O-] (stereo partly specified) | 1100 | 610 | inactive | Active | 2.18 | 11.21 | 10.9 | 75.71 | 2.83 | 17.28 | 35.08 | 44.8 | 22.11 | 52.36 | Unstable | Metabolite_Detected | Activity [4]: inactive; Activity [5]: Active
3 | O=C(CCOCCOCCOCCOc1cccc2c1C(=O)N(C1CCC(=O)N(Cc3ccc([N+](=O)[O-])cc3)C1=O)C2=O)Nc1cc2c(Nc3ccc(F)c(Cl)c3)ncnc2cc1O[C@H]1CCOC1 (stereo partly specified) | 1920 | 1090 | inactive | Active | 1.1 | 2.98 | 3.28 | 92.63 | 1.89 | 7.96 | 9.37 | 80.78 | 6.26 | 17.33 | Unstable | Metabolite_Detected | Activity [20]: inactive; Activity [21]: Active; Activity [22]: Active; Activity [23]: Active

Source: ChEMBL document CHEMBL5252616, “Design, synthesis and biological evaluation of the tumor hypoxia-activated PROTACs bearing caged CRBN E3 ligase ligands” (Bioorg Med Chem, 2023)
